Laboratory results reported in EP3708565A1, “PYRIMIDINYLOXYPHENYLAMIDINES AND THE USE THEREOF AS FUNGICIDES” (Bayer AG, priority 2020, dated 2020).

Assays:
Sphaerotheca fuliginea = assay: in vivo preventive test on Sphaerotheca fuliginea (powdery mildew on cucurbits); settings: 500 ppm of active ingredient, young gherkin plants sprayed, inoculated after 24 hours, evaluated 8 days after the inoculation; for pest or weed control at 500 ppm: Podosphaera fuliginea, 192 h, read-out: efficacy
Experimental: Example: in vivo preventive test on Sphaerotheca fuliginea (powdery mildew on cucurbits)
(§1) The active ingredients were made soluble and homogenized in a mixture of Dimethyl sulfoxide/Acetone/ /Tween® 80 and then diluted in water to the desired concentration.
The young plants of gherkin were treated by spraying the active ingredient prepared as described above. Control plants were treated only with an aqueous solution of Acetone/Dimethyl sulfoxide/ […].
After 24 hours, the plants were contaminated by spraying the leaves with an aqueous suspension of Sphaerotheca fuliginea spores. The contaminated gherkin plants were incubated for 8 days at 20°C and at 70-80% relative humidity.
The test was evaluated 8 days after the inoculation. 0% means an efficacy which corresponds to that of the control plants while an efficacy of 100% means that no disease was observed.

Phakospora pachyrhizi = assay: in vivo preventive test on Phakospora pachyrhizi (soybean rust); settings: for pest or weed control at 500 ppm: Glycine max, 288 h, 500 ppm of active ingredient, young soybean plants sprayed, inoculated after 24 hours, evaluated 12 days after the inoculation, read-out: efficacy; for efficacy: 500 ppm
Experimental: Example: in vivo preventive test on Phakospora pachyrhizi (soybean rust)
as §1
The young plants of soybean were treated by spraying the active ingredient prepared as described above. Control plants were treated only with an aqueous solution of Acetone/Dimethyl sulfoxide/ […].
After 24 hours, the plants were contaminated by spraying the leaves with an aqueous suspension of Phakosporapachyrhizi spores. The contaminated soybean plants were incubated for 24 hours at 24°C and at 100% relative humidity and then for 11 days at 24°C and at 70-80% relative humidity.
The test was evaluated 12 days after the inoculation. 0% means an efficacy which corresponds to that of the control plants while an efficacy of 100% means that no disease was observed.

[1] = LogP measurement by HPLC on reversed phase columns (EEC directive 79/831 Annex V.A8); assay type: physicochemical
Experimental: If more than one LogP value is available within the same method, all the values are given and separated by "+".
Lambda-max-values were determined using UV-spectra from 200 nm to 400 nm and the peak values of the chromatographic signals.

Puccinia recondita = assay: in vivo preventive test on Puccinia recondita (brown rust on wheat); settings: for pest or weed control at 500 ppm: Puccinia recondita, 264 h, 500 ppm of active ingredient, young wheat plants sprayed, inoculated after 24 hours, evaluated 11 days after the inoculation, read-out: efficacy; for efficacy: 500 ppm
Experimental: Example: in vivo preventive test on Puccinia recondita (brown rust on wheat)
as §1
The young plants of wheat were treated by spraying the active ingredient prepared as described above. Control plants were treated only with an aqueous solution of Acetone/Dimethyl sulfoxide/ Tween® 80.
After 24 hours, the plants were contaminated by spraying the leaves with an aqueous suspension of Puccinia recondita spores. The contaminated wheat plants were incubated for 24 hours at 20°C and at 100% relative humidity and then for 10 days at 20°C and at 70-80% relative humidity.
The test was evaluated 11 days after the inoculation. 0% means an efficacy which corresponds to that of the control plants while an efficacy of 100% means that no disease was observed.

[2] = reversed phase HPLC column, method [a]: LC-UV, acidic range, 0.1% formic acid in water and acetonitrile as eluent
[3] = reversed phase HPLC column, method [b]: LC-UV, neutral range, 0.001 molar ammonium acetate solution in water and acetonitrile as eluent
[4] = method [a]: LC-UV, acidic range, 0.1% formic acid in water and acetonitrile as eluent
[5] = method [b]: LC-UV, neutral range, 0.001 molar ammonium acetate solution in water and acetonitrile as eluent

Compound: CCC(C)Sc1nccc(Oc2cc(C)c(N=CN(C)CC)cc2C)n1 (racemic) [I.004, N'-[2,5-dimethyl-4-[2-[rac-(2R)-butan-2-yl]sulfanylpyrimidin-4-yl]oxyphenyl]-N-ethyl-N-methylmethanimidamide]
- pest or weed control at 500 ppm (Sphaerotheca fuliginea): ≥ 70%
- pest or weed control at 500 ppm (Phakospora pachyrhizi): ≥ 70%
- chromatographic logP [1, 2]: 1.87
- pest or weed control at 500 ppm (Puccinia recondita): ≥ 70%

Compound: CCN(C)C=Nc1cc(C)c(Oc2ccnc(/C=C/C(C)(C)C)n2)cc1C [I.034, N'-[4-[2-[(E)-3,3-dimethylbut-1-enyl]pyrimidin-4-yl]oxy-2,5-dimethylphenyl]-N-ethyl-N-methylmethanimidamide]
- pest or weed control at 500 ppm (Sphaerotheca fuliginea): ≥ 70%
- pest or weed control at 500 ppm (Phakospora pachyrhizi): ≥ 70%
- chromatographic logP [1, 2]: 1.66
- chromatographic logP [1, 3]: 4.94
- pest or weed control at 500 ppm (Puccinia recondita): ≥ 70%

Compound: CCCSc1nccc(Oc2cc(C)c(N=CN(C)CC)cc2C(F)F)n1 [I.036, N'-[5-(difluoromethyl)-2-methyl-4-(2-propylsulfanylpyrimidin-4-yl)oxyphenyl]-N-ethyl-N-methylmethanimidamide]
- pest or weed control at 500 ppm (Sphaerotheca fuliginea): ≥ 70%
- pest or weed control at 500 ppm (Phakospora pachyrhizi): ≥ 70%
- chromatographic logP [1, 2]: 1.55
- pest or weed control at 500 ppm (Puccinia recondita): ≥ 70%

Compound: CCN(C)C=Nc1cc(Br)c(Oc2ccnc(C(C)(C)C)n2)cc1C [I.038, N'-[5-bromo-4-(2-tert-butylpyrimidin-4-yl)oxy-2-methylphenyl]-N-ethyl-N-methylmethanimid-amide]
- efficacy (Phakospora pachyrhizi): at least 70%
- chromatographic logP [1, 4]: 1.58
- chromatographic logP [1, 5]: 4.93
- efficacy (Puccinia recondita): at least 70%

Compound: CCN(C)C=Nc1cc(C)c(Oc2ccnc(SCC(F)(F)F)n2)cc1Cl [I.006, N'-[2-chloro-5-methyl-4-[2-(2,2,2-trifluoroethylsulfanyl)pyrimidin-4-yl]oxyphenyl]-N-ethyl-N-methylmethanimidamide]
- pest or weed control at 500 ppm (Sphaerotheca fuliginea): ≥ 70%
- pest or weed control at 500 ppm (Phakospora pachyrhizi): ≥ 70%
- chromatographic logP [1, 2]: 1.53
- chromatographic logP [1, 3]: 4.19
- pest or weed control at 500 ppm (Puccinia recondita): ≥ 70%

Compound: CCN(C)C=Nc1cc(C)c(Oc2ccnc(SCC(F)(F)F)n2)cc1C [I.031, N'-[2,5-dimethyl-4-[2-(2,2,2-trifluoroethylsulfanyl)pyrimidin-4-yl]oxyphenyl]-N-ethyl-N-methylmethanimidamide]
- pest or weed control at 500 ppm (Sphaerotheca fuliginea): ≥ 70%
- pest or weed control at 500 ppm (Phakospora pachyrhizi): ≥ 70%
- chromatographic logP [1, 2]: 1.52
- chromatographic logP [1, 3]: 4.37
- pest or weed control at 500 ppm (Puccinia recondita): ≥ 70%

Compound: CCN(C)C=Nc1cc(C)c(Oc2ccnc(CCC(C)(C)C)n2)cc1C [I.003, N'-[4-[2-(3,3-dimethylbutyl)pyrimidin-4-yl]oxy-2,5-dimethylphenyl]-N-ethyl-N-methylmethan-imidamide]
- pest or weed control at 500 ppm (Sphaerotheca fuliginea): ≥ 70%
- pest or weed control at 500 ppm (Phakospora pachyrhizi): ≥ 70%
- chromatographic logP [1, 2]: 1.63
- chromatographic logP [1, 3]: 4.89
- pest or weed control at 500 ppm (Puccinia recondita): ≥ 70%

Compound: CCN(C)C=Nc1cc(C(F)(F)F)c(Oc2ccnc(SCC(C)C)n2)cc1C [I.035, N-ethyl-N-methyl-N'-[2-methyl-4-[2-(2-methylpropylsulfanyl)pyrimidin-4-yl]oxy-5-(trifluoromethyl)phenyl]methanimidamide]
- pest or weed control at 500 ppm (Phakospora pachyrhizi): ≥ 70%
- chromatographic logP [1, 2]: 1.93
- pest or weed control at 500 ppm (Puccinia recondita): ≥ 70%

Compound: CCN(C)C=Nc1cc(C)c(Oc2ccnc(Sc3ccccc3)n2)cc1C [I.039, N'-[2,5-dimethyl-4-(2-phenylsulfanylpyrimidin-4-yl)oxyphenyl]-N-ethyl-N-methylmethanimid-amide]
- efficacy (Sphaerotheca fuliginea): at least 70%
- efficacy (Phakospora pachyrhizi): at least 70%
- chromatographic logP [1, 4]: 1.52
- chromatographic logP [1, 5]: 4.55
- efficacy (Puccinia recondita): at least 70%

Compound: CCN(C)C=Nc1cc(C)c(Oc2ccnc(SCc3ccccc3)n2)cc1C [I.042, N'-[4-(2-benzylsulfanylpyrimidin-4-yl)oxy-2,5-dimethylphenyl]-N-ethyl-N-methylmethanimid-amide]
- efficacy (Sphaerotheca fuliginea): at least 70%
- efficacy (Phakospora pachyrhizi): at least 70%
- chromatographic logP [1, 4]: 1.63
- chromatographic logP [1, 5]: 4.82
- efficacy (Puccinia recondita): at least 70%

Compound: CCN(C)C=Nc1cc(C)c(Oc2ccnc(SCC(C)C)n2)cc1C [I.026, N'-[2,5-dimethyl-4-[2-(2-methylpropylsulfanyl)pyrimidin-4-yl]oxyphenyl]-N-ethyl-N-methyl-methanimidamide]
- pest or weed control at 500 ppm (Phakospora pachyrhizi): ≥ 70%
- chromatographic logP [1, 2]: 1.61
- chromatographic logP [1, 3]: 5.06
- pest or weed control at 500 ppm (Puccinia recondita): ≥ 70%

Compound: CCN(C)C=Nc1cc(C)c(Oc2ccnc(Sc3ccccc3F)n2)cc1C [I.008, N-ethyl-N'-[4-[2-(2-fluorophenyl)sulfanylpyrimidin-4-yl]oxy-2,5-dimethylphenyl]-N-methyl-methanimidamide]
- pest or weed control at 500 ppm (Sphaerotheca fuliginea): ≥ 70%
- pest or weed control at 500 ppm (Phakospora pachyrhizi): ≥ 70%
- chromatographic logP [1, 2]: 1.6
- pest or weed control at 500 ppm (Puccinia recondita): ≥ 70%

Compound: CCN(C)C=Nc1cc(C)c(Oc2ccnc(Sc3ccc(F)cc3)n2)cc1C [I.010, N-ethyl-N'-[4-[2-(4-fluorophenyl)sulfanylpyrimidin-4-yl]oxy-2,5-dimethylphenyl]-N-methyl-methanimidamide]
- pest or weed control at 500 ppm (Sphaerotheca fuliginea): ≥ 70%
- pest or weed control at 500 ppm (Phakospora pachyrhizi): ≥ 70%
- chromatographic logP [1, 2]: 1.6
- pest or weed control at 500 ppm (Puccinia recondita): ≥ 70%

Compound: CCN(C)C=Nc1cc(Br)c(Oc2ccnc(SCC(C)C)n2)cc1C [I.007, N'-[5-bromo-2-methyl-4-[2-(2-methylpropylsulfanyl)pyrimidin-4-yl]oxyphenyl]-N-ethyl-N-methylmethanimidamide]
- pest or weed control at 500 ppm (Sphaerotheca fuliginea): ≥ 70%
- pest or weed control at 500 ppm (Phakospora pachyrhizi): ≥ 70%
- chromatographic logP [1, 2]: 1.81
- chromatographic logP [1, 3]: 5.25
- pest or weed control at 500 ppm (Puccinia recondita): ≥ 70%

Compound: CCN(C)C=Nc1cc(C)c(Oc2ccnc(SC(C)C)n2)cc1Cl [I.046, N'-[2-chloro-5-methyl-4-(2-propan-2-ylsulfanylpyrimidin-4-yl)oxyphenyl]-N-ethyl-N-methyl-methanimidamide]
- chromatographic logP [1, 2]: 1.52
- chromatographic logP [1, 3]: 4.35
- pest or weed control at 500 ppm (Puccinia recondita): ≥ 70%

Compound: CCN(C)C=Nc1cc(C)c(Oc2ccnc(Sc3ccncc3)n2)cc1C [I.047, N'-[2,5-dimethyl-4-(2-pyridin-4-ylsulfanylpyrimidin-4-yl)oxyphenyl]-N-ethyl-N-methylmethan-imidamide]
- pest or weed control at 500 ppm (Sphaerotheca fuliginea): ≥ 70%
- chromatographic logP [1, 2]: 1.13

Compound: CCN(C)C=Nc1cc(C)c(Oc2ccnc(C(C)(C)C)n2)cc1C [I.032, N'-[4-(2-tert-butylpyrimidin-4-yl)oxy-2,5-dimethylphenyl]-N-ethyl-N-methylmethanimidamide]
- pest or weed control at 500 ppm (Phakospora pachyrhizi): ≥ 70%
- chromatographic logP [1, 2]: 1.46
- chromatographic logP [1, 3]: 4.56
- pest or weed control at 500 ppm (Puccinia recondita): ≥ 70%

Compound: CCN(C)C=Nc1cc(C)c(Oc2ccnc(SCC(C)C)n2)cc1Cl [I.048, N'-[2-chloro-5-methyl-4-[2-(2-methylpropylsulfanyl)pyrimidin-4-yl]oxyphenyl]-N-ethyl-N-methylmethanimidamide]
- pest or weed control at 500 ppm (Sphaerotheca fuliginea): ≥ 70%
- chromatographic logP [1, 2]: 1.72
- chromatographic logP [1, 3]: 4.77
- pest or weed control at 500 ppm (Puccinia recondita): ≥ 70%

Compound: CCN(C)C=Nc1cc(C#N)c(Oc2ccnc(SCC(C)C)n2)cc1C [I.049, N'-[5-cyano-2-methyl-4-[2-(2-methylpropylsulfanyl)pyrimidin-4-yl]oxyphenyl]-N-ethyl-N-methylmethanimidamide]
- pest or weed control at 500 ppm (Sphaerotheca fuliginea): ≥ 70%
- chromatographic logP [1, 2]: 1.6
- chromatographic logP [1, 3]: 4.5
- pest or weed control at 500 ppm (Puccinia recondita): ≥ 70%

Compound: CCN(C)C=Nc1cc(C(F)F)c(Oc2nc(SCC(C)C)ncc2C)cc1C [I.051, N'-[5-(difluoromethyl)-2-methyl-4-[5-methyl-2-(2-methylpropylsulfanyl)pyrimidin-4-yl]oxyphenyl]-N-ethyl-N-methylmethanimidamide]
- pest or weed control at 500 ppm (Sphaerotheca fuliginea): ≥ 70%
- chromatographic logP [1, 2]: 1.9

Compound: CCCSc1nccc(Oc2cc(C)c(N=CN(C)CC)cc2C#N)n1 [I.050, N'-[5-cyano-2-methyl-4-(2-propylsulfanylpyrimidin-4-yl)oxyphenyl]-N-ethyl-N-methylmethan-imidamide]
- pest or weed control at 500 ppm (Sphaerotheca fuliginea): ≥ 70%
- chromatographic logP [1, 2]: 1.44
- chromatographic logP [1, 3]: 4.16
- pest or weed control at 500 ppm (Puccinia recondita): ≥ 70%
